# Target: T1, Diacylglycerol O-acyltransferase 2 (Homo sapiens, UniProt Q96PD7)
# T1 sequence (Q96PD7 whole entry): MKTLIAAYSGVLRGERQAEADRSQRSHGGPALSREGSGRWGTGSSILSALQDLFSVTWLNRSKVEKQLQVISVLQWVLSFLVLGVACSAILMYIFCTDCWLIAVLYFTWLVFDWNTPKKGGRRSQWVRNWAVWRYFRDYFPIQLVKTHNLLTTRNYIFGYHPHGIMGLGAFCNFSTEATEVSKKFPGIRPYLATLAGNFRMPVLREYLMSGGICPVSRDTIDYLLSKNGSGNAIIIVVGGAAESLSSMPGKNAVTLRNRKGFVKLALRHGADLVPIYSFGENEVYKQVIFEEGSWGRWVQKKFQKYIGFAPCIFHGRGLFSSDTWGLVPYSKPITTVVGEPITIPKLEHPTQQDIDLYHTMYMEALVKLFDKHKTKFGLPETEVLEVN
# Test: Measurement of Inhibitory Effect Against DGAT2 Enzyme Activity
# Description: 1. […] In order to prepare the pBacPAK9-DGAT2, which is DGAT2 expression vector, the human DGAT2 gene amplified by polymerase chain reaction (PCR) was cloned into the EcoR1 and Xho1 sites of the pBacPAK9 (clonctech) vector. The nucleotide sequence of the primers used in PCR was the forward primer 5′ […] […] and the reverse primer 5′ […]. The composition of the reaction solution was to contain 50 ng of cDNA clone (OriGene), 200 μM of dATP, dCTP, dTTP, dGTP, 200 nM of each primer, 1 unit of Tag DNA Polymerase (Toyobo), 1x PCR buffer, and the final volume was adjusted to 20 μl. The reaction conditions were denatured at 95° C. for 5 minutes, followed by 30 times of 94° C. for 20 seconds, 60° C. for 20 seconds, and 72° C. for 90 seconds, followed by further reaction at 72° C. for 7 minutes. 2. […] Recombinant human DGAT2 protein was expressed in Sf-21 cells, which are insect cells, by using the BacPack baculovirus expression system (Clontech). The brief manufacturing process is as follows. First, the pBacPAK9-DGAT2 expression vector was transfected with BacPAK6 virus DNA (Bsu36I digest) into sf21 cells using Bacfectin to prepare a recombinant DGAT2 expressing baculovirus. The thus prepared baculovirus was infected with Sf-21 cells at 10 MOI (multiplicity of infection), and after 72 hours, infected insect cells were collected and membrane proteins were isolated. […] Protein concentration was quantified by using the BCA Protein Assay Kit (Thermo Scientific). […] The next day, the amplified scintillation signal (cpm) in Topcounter (Packard) was measured to measure the degree of production of [14C]-labeled triacyl glycerol (TG) as a reaction product. The measured value when the compound was not treated was used as a positive control, and the measured value of the compound treated group was calculated as a relative % to measure the inhibition effect of the compound on TG production.
row,Structure (SMILES),IC50 [nM]
1,"CCOC(=O)C(F)(F)c1ccc(CC(=O)Nc2cncc(-c3cncc(Oc4ccccc4OCC)c3)n2)cc1 [US20230322706, Example 6]",120
2,"CCOc1ccccc1Oc1cccc(-c2cncc(NC(=O)/C=C/c3ccc(C(C)(C)C(=O)O)cc3)n2)c1 [US20230322706, Example 17]",240
3,"CCOc1ccccc1Oc1cccc(-c2cncc(NC(=O)Cc3ccc(C(F)(F)C(=O)O)cc3)n2)c1 [US20230322706, Example 14]",3100
